Source: US20260242398A1, “BENZOPYRIMIDIN-4(3H)-ONES AS PI3K INHIBITORS” (OnKure, Inc., priority 2022, published 2026)
Where two headings read alike, the source gives them in different places.

Experiments:
[1] = tested on: phosphorylation of AKT (pAKT) in SKBR3 cells express WT PI3Ka; assay: In vitro cell pAKT (Ser473) HTRF, SKBR3 cells; format: cell-based; conditions: Homo sapiens, SK-BR-3, 6 h, inhibition of pAKT
Outline: (§1)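 T47D (PI3Kα H1047R; RPMI, 10% FBS, insulin) or SKBR3 (WT PI3Kα; McCoy's 5a, 10% FBS) cells, 5000/well, are treated with 10-point compound dilutions for 6 h at 37° C. Lysates are read for pAKT Ser473 by HTRF. Inhibition is normalised to DMSO (0%) and 10 μM alpelisib (100%), and IC50 comes from a four-parameter fit.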

[2] = tested on: T47D cells expressing mutant PI3Ka (H1047R); assay: In vitro cell proliferation (CellTiter-Glo, 72 hours), T47D cells; format: cell-based; conditions: inhibition of proliferation, read-out: Avg T-47D EC50
Outline: (§2)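 1,500 cells/well (T47D in RPMI/10% FBS/insulin 0.2 units/mL; SKBR3 in McCoys 5a/10% FBS) plated onto 10-point compound dilutions and grown 72 h at 37 °C, 5% CO2; CellTiter-Glo luminescence. Inhibition scaled between 0.1% DMSO and 10 uM alpelisib; EC50 from four-parameter logistic fit.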

[3] = Mouse pharmacokinetics, single IV or PO dose, plasma LC/MS/MS; format: in vivo; conditions: CD1 mice; for PK-Mouse: PO F: PO 10 mg/kg vs IV 1 mg/kg; for AUC(0-t) / clearance: mouse, plasma; for clearance: read-out: PK-Mouse: IV Cl
Method: CD1 mice were dosed with a single IV or PO dose, followed by serial sampling of plasma at 0.0833 (IV only), 0.25, 0.5, 1, 2, 4, 8, 24 hours post dose. Desired serial concentrations of working solutions were achieved by diluting stock solution of analyte with 50% acetonitrile in water solution. 10 μL of working solutions (0.5, 1, 2, 5, 10, 50, 100, 500, 1000 ng/mL) were added to 10 μL of the blank Female CD1 Mouse plasma to achieve calibration standards of 0.5~1000 ng/mL (0.5, 1, 2, 5, 10, 50, 100, 500, 1000 ng/mL) in a total volume of […]. Five quality control samples at 1 ng/mL, 2 ng/mL, 5 ng/mL, 50 ng/mL and 800 ng/mL for plasma were prepared independently of those used for the calibration curves. These QC samples were prepared on the day of analysis in the same way as calibration standards. 20 μL standards, 20 μL QC samples and 20 μL unknown samples (10 μL plasma with 10 μL blank solution) were added to 200 μL of acetonitrile containing IS mixture for precipitating protein respectively. Then the samples were vortexed for 30 s. after centrifugation at 4° Celsius, 4000 rpm for 15 min. The supernatant was diluted with water at a ratio of 1:2 (V/V, 1:2), Then 5 μL of diluted supernatant was injected into the LC/MS/MS system for quantitative analysis.

[4] = tested on: SKBR3 cells express WT PI3Ka; assay: In vitro cell proliferation (CellTiter-Glo, 72 hours), SKBR3 cells; format: cell-based; conditions: Homo sapiens, SK-BR-3, 72 h, inhibition of proliferation
Outline: as §2

[5] = tested on: phosphorylation of AKT (pAKT) in T47D cells expressing mutant PI3Ka (H1047R); assay: In vitro cell pAKT (Ser473) HTRF, T47D cells; format: cell-based; conditions: inhibition of pAKT, 6 hour, read-out: Avg T-47D IC50
Outline: as §1

[6] = IV 1 mg/kg, solution in 20% PEG400/20% PG/60% of 20% HPBCD solution in water, read-out: PK-Mouse: IV AUC last
[7] = IV 1 mg/kg, solution in 20% PEG400/20% PG/60% of 20% HPBCD solution in water
[8] = PO 10 mg/kg, suspension in 30% SBEβCD in water, read-out: PK-Mouse PO AUC last

With `CC(Nc1ccccc1C(=O)O)c1cc(F)cc2c(=O)n(C)c(N3CCN(CC(F)(F)F)CC3)nc12` (single isomer, unassigned) [Example 35, 2-((1-(6-fluoro-3-methyl-4-oxo-2-(4-(2,2,2-trifluoroethyl)piperazin-1-yl)-3,4-dihydroquinazolin-8-yl)ethyl)amino)benzoic acid] the IC50 [1] was over 15 µM, the EC50 [2] was 0.5 to 2 µM and the “PK-Mouse: PO F” value [3] was 187%. The AUC(0-t) [3, 6] was 242 ng·h/mL, the clearance [3, 7] was 59.5 mL/min/kg and the AUC(0-t) [3, 8] was 4520 ng·h/mL. It also gave an EC50 [4] of over 15 µM and an IC50 [5] of 0.001 to 1 µM.

For `Cc1cc(C(C)Nc2ccc(F)cc2C(=O)O)c2nc(N3CCC(C)(C)CC3)n(C)c(=O)c2c1` (single isomer, unassigned) [Example 29, 2-((1-(2-(4,4-dimethylpiperidin-1-yl)-3,6-dimethyl-4-oxo-3,4-dihydroquinazolin-8-yl)ethyl)amino)-5-fluorobenzoic acid], the IC50 [1] was over 15 µM, the EC50 [2] was 0.001 to 0.5 µM and the “PK-Mouse: PO F” value [3] was 61%. The AUC(0-t) [3, 6] was 1740 ng·h/mL, the clearance [3, 7] was 8.7 mL/min/kg and the AUC(0-t) [3, 8] was 10700 ng·h/mL. The EC50 [4] was 2 to 15 µM and the IC50 [5] was 0.001 to 1 µM.
